Literature values in patent US5922690A (priority 1997, dated 1999).

Tested on: rabbits
Settings: in vivo

Bleeding from a standardized incision in a rabbit's ear, heparin versus DS	Multiple of the antithrombotic dose injected without increasing bleeding (rabbit)	Substance
much greater	–	heparin
–	up to forty times	dermatan sulfate [DS]
